# According to patent US20230278972A1, “SUBSTITUTED HALOALKYL SULFONANILIDE HERBICIDES” (FMC Corporation, priority 2020, published 2023):
# Experiments:
# Assay type in all cases: in vivo
# [1] = tested on: barnyardgrass (Echinochloa crus-galli); test: Test A preemergence, barnyardgrass; conditions: Preemergence; for Barnyardgrass plant response rating: visual injury on 0 to 100 scale (0 no effect, 100 complete control), approximately 10 days; for Plant response rating, Barnyardgrass: 0 to 100 scale (0 no effect, 100 complete control)
# Description: (§1) Seeds of plant species selected from barnyardgrass (Echinochloa crus-galli), kochia (Bassia scoparia), ragweed (common ragweed, Ambrosia artemisiifolia), Ryegrass, Italian (Italian ryegrass, Lolium multiflorum), Foxtail, Giant (giant foxtail, Setaria faberi), and pigweed (Amaranthus retroflexus) were planted into a blend of loam soil and sand and treated preemergence with a directed soil spray using test chemicals formulated in a non-phytotoxic solvent mixture which included a surfactant. At the same time, plants selected from these weed species and also wheat (Triticum aestivum), corn (Zea mays), blackgrass (Alopecurus myosuroides), and galium (catchweed bedstraw, Galium aparine) were planted in pots containing the same blend of loam soil and sand and treated with postemergence applications of test chemicals formulated in the same manner. Plants ranged in height from 2 to 10 cm and were in the one- to two-leaf stage for the postemergence treatment. […] A dash (-) response means no test result.
# [2] = tested on: ragweed (common ragweed, Ambrosia artemisiifolia); test: Test A postemergence, ragweed; conditions: Postemergence, 0 to 100 scale (0 no effect, 100 complete control); for Ragweed plant response rating: visual injury vs untreated controls after approx. 10 days
# Description: as §1
# kochia (Bassia scoparia) [3] = test: Test A postemergence, kochia; conditions: Postemergence, 0 to 100 scale (0 no effect, 100 complete control); for Kochia plant response rating: visual injury vs untreated controls after approx. 10 days
# Description: as §1
# [4] = tested on: barnyardgrass (Echinochloa crus-galli); test: Test A postemergence, barnyardgrass; conditions: Postemergence, 0 to 100 scale (0 no effect, 100 complete control); for Barnyardgrass plant response rating: visual injury vs untreated controls after approx. 10 days
# Description: as §1
# [5] = tested on: pigweed (Amaranthus retroflexus); test: Test A postemergence, pigweed; conditions: Postemergence, 0 to 100 scale (0 no effect, 100 complete control); for Pigweed plant response rating: visual injury vs untreated controls after approx. 10 days
# Description: as §1
# [6] = tested on: Ryegrass, Italian (Italian ryegrass, Lolium multiflorum); test: Test A postemergence, Ryegrass, Italian; conditions: Postemergence, 0 to 100 scale (0 no effect, 100 complete control); for Ryegrass, Italian plant response rating: visual injury vs untreated controls after approx. 10 days
# Description: as §1
# [7] = tested on: ragweed (common ragweed, Ambrosia artemisiifolia); test: Test A preemergence, ragweed; conditions: Preemergence; for Ragweed plant response rating: visual injury on 0 to 100 scale (0 no effect, 100 complete control), approximately 10 days; for Plant response rating, Ragweed: 0 to 100 scale (0 no effect, 100 complete control)
# Description: as §1
# corn (Zea mays) = test: Test A postemergence, corn; conditions: Postemergence, 0 to 100 scale (0 no effect, 100 complete control); for Corn plant response rating: visual injury vs untreated controls after approx. 10 days
# Description: as §1
# [8] = tested on: wheat (Triticum aestivum); test: Test A postemergence, wheat; conditions: Postemergence, 0 to 100 scale (0 no effect, 100 complete control); for Wheat plant response rating: visual injury vs untreated controls after approx. 10 days
# Description: as §1
# [9] = tested on: blackgrass (Alopecurus myosuroides); test: Test A postemergence, blackgrass; conditions: Postemergence, 0 to 100 scale (0 no effect, 100 complete control); for Blackgrass plant response rating: visual injury vs untreated controls after approx. 10 days
# Description: as §1
# [10] = tested on: Ryegrass, Italian (Italian ryegrass, Lolium multiflorum); test: Test A preemergence, Ryegrass, Italian; conditions: Preemergence; for Ryegrass, Italian plant response rating: visual injury on 0 to 100 scale (0 no effect, 100 complete control), approximately 10 days; for Plant response rating, Ryegrass, Italian: 0 to 100 scale (0 no effect, 100 complete control)
# Description: as §1
# [11] = tested on: galium (catchweed bedstraw, Galium aparine); test: Test A postemergence, galium; conditions: Postemergence, 0 to 100 scale (0 no effect, 100 complete control); for Galium plant response rating: visual injury vs untreated controls after approx. 10 days
# Description: as §1
# [12] = tested on: Foxtail, Giant (giant foxtail, Setaria faberi); test: Test A preemergence, Foxtail, Giant; conditions: Preemergence; for Foxtail, Giant plant response rating: visual injury on 0 to 100 scale (0 no effect, 100 complete control), approximately 10 days; for Plant response rating, Foxtail, Giant: 0 to 100 scale (0 no effect, 100 complete control)
# Description: as §1
# kochia (Bassia scoparia) [13] = test: Test A preemergence, kochia; conditions: Preemergence; for Kochia plant response rating: visual injury on 0 to 100 scale (0 no effect, 100 complete control), approximately 10 days; for Plant response rating, Kochia: 0 to 100 scale (0 no effect, 100 complete control)
# Description: as §1
# [14] = tested on: Foxtail, Giant (giant foxtail, Setaria faberi); test: Test A postemergence, Foxtail, Giant; conditions: Postemergence, 0 to 100 scale (0 no effect, 100 complete control); for Foxtail, Giant plant response rating: visual injury vs untreated controls after approx. 10 days
# Description: as §1
# [15] = 125 g ai/ha, visual injury, approx. 10 days
# [16] = 500 g ai/ha, visual injury approx. 10 days
# [17] = 125 g ai/ha, visual injury approx. 10 days
compound,measurement,setting,value
"Cc1cc(C)c(C2=NOC3(C2)CC(C)OC(C)C3)cc1NS(=O)(=O)C(F)(F)F (single isomer, unassigned) [Compound 171]",Barnyardgrass plant response rating,[1]; 125 g ai/ha,90
same,"Plant response rating, Barnyardgrass",[1]; 500 g ai/ha,100
same,"Plant response rating, Ragweed",[2]; 125 g ai/ha,40
same,Ragweed plant response rating,[2]; 500 g ai/ha,90
same,"Plant response rating, Kochia",kochia (Bassia scoparia) [3]; 125 g ai/ha,30
same,Kochia plant response rating,kochia (Bassia scoparia) [3]; 500 g ai/ha,70
same,"Plant response rating, Barnyardgrass",[4]; 125 g ai/ha,90
same,Barnyardgrass plant response rating,[4]; 500 g ai/ha,90
same,"Plant response rating, Pigweed",[5]; 125 g ai/ha,60
same,Pigweed plant response rating,[5]; 500 g ai/ha,80
same,"Plant response rating, Ryegrass, Italian",[6]; 125 g ai/ha,80
same,"Ryegrass, Italian plant response rating",[6]; 500 g ai/ha,80
same,Ragweed plant response rating,[7]; 125 g ai/ha,80
same,"Plant response rating, Ragweed",[7]; 500 g ai/ha,90
same,"Plant response rating, Corn",corn (Zea mays); 125 g ai/ha,80
same,Corn plant response rating,corn (Zea mays); 500 g ai/ha,80
same,"Plant response rating, Wheat",[8]; 125 g ai/ha,60
same,Wheat plant response rating,[8]; 500 g ai/ha,60
same,"Plant response rating, Blackgrass",[9]; 125 g ai/ha,40
same,Blackgrass plant response rating,[9]; 500 g ai/ha,80
same,"Ryegrass, Italian plant response rating",[10]; 125 g ai/ha,100
same,"Plant response rating, Ryegrass, Italian",[10]; 500 g ai/ha,100
same,"Plant response rating, Galium",[11]; 125 g ai/ha,60
same,Galium plant response rating,[11]; 500 g ai/ha,90
same,"Foxtail, Giant plant response rating",[12]; 125 g ai/ha,100
same,"Plant response rating, Foxtail, Giant",[12]; 500 g ai/ha,100
same,Kochia plant response rating,kochia (Bassia scoparia) [13]; 125 g ai/ha,70
same,"Plant response rating, Kochia",kochia (Bassia scoparia) [13]; 500 g ai/ha,90
same,"Plant response rating, Foxtail, Giant",[14]; 125 g ai/ha,60
same,"Foxtail, Giant plant response rating",[14]; 500 g ai/ha,90
CC(=O)N(c1cc(N2CCC3(CCCCC3)C2=O)c(C)cc1C)S(=O)(=O)C(F)(F)F [Compound 265],"Plant response rating, Barnyardgrass",[1]; [15],90
same,Barnyardgrass plant response rating,[1]; 500 g ai/ha,100
same,"Plant response rating, Ragweed",[2]; 125 g ai/ha,60
same,"Plant response rating, Ragweed",[2]; [16],80
same,"Plant response rating, Kochia",kochia (Bassia scoparia) [3]; 125 g ai/ha,40
same,"Plant response rating, Kochia",kochia (Bassia scoparia) [3]; [16],50
same,"Plant response rating, Barnyardgrass",[4]; 125 g ai/ha,60
same,"Plant response rating, Barnyardgrass",[4]; [16],80
same,"Plant response rating, Pigweed",[5]; 125 g ai/ha,60
same,"Plant response rating, Pigweed",[5]; [16],90
same,"Plant response rating, Ryegrass, Italian",[6]; 125 g ai/ha,20
same,"Plant response rating, Ryegrass, Italian",[6]; [16],70
same,"Plant response rating, Ragweed",[7]; [15],90
same,Ragweed plant response rating,[7]; 500 g ai/ha,90
same,"Plant response rating, Corn",corn (Zea mays); 125 g ai/ha,20
same,"Plant response rating, Corn",corn (Zea mays); [16],60
same,"Plant response rating, Wheat",[8]; 125 g ai/ha,30
same,"Plant response rating, Wheat",[8]; [16],60
same,"Plant response rating, Blackgrass",[9]; 125 g ai/ha,30
same,"Plant response rating, Blackgrass",[9]; [16],20
same,"Plant response rating, Ryegrass, Italian",[10]; [15],90
same,"Ryegrass, Italian plant response rating",[10]; 500 g ai/ha,100
same,"Plant response rating, Galium",[11]; 125 g ai/ha,90
same,"Plant response rating, Galium",[11]; [16],90
same,"Plant response rating, Foxtail, Giant",[12]; [15],100
same,"Foxtail, Giant plant response rating",[12]; 500 g ai/ha,100
same,"Plant response rating, Kochia",kochia (Bassia scoparia) [13]; [15],90
same,Kochia plant response rating,kochia (Bassia scoparia) [13]; 500 g ai/ha,90
same,"Plant response rating, Foxtail, Giant",[14]; 125 g ai/ha,0
same,"Plant response rating, Foxtail, Giant",[14]; [16],20
C#CCN(C)C(=O)c1cc(NS(=O)(=O)C(F)(F)F)c(C)c(F)c1C [Compound 179],Barnyardgrass plant response rating,[1]; 125 g ai/ha,90
same,"Plant response rating, Barnyardgrass",[1]; 500 g ai/ha,90
same,"Plant response rating, Ragweed",[2]; 125 g ai/ha,90
same,Ragweed plant response rating,[2]; 500 g ai/ha,90
same,"Plant response rating, Kochia",kochia (Bassia scoparia) [3]; 125 g ai/ha,60
same,Kochia plant response rating,kochia (Bassia scoparia) [3]; 500 g ai/ha,70
same,"Plant response rating, Barnyardgrass",[4]; 125 g ai/ha,90
same,Barnyardgrass plant response rating,[4]; 500 g ai/ha,90
same,"Plant response rating, Pigweed",[5]; 125 g ai/ha,80
same,Pigweed plant response rating,[5]; 500 g ai/ha,90
same,"Plant response rating, Ryegrass, Italian",[6]; 125 g ai/ha,40
same,"Ryegrass, Italian plant response rating",[6]; 500 g ai/ha,80
same,Ragweed plant response rating,[7]; 125 g ai/ha,90
same,"Plant response rating, Ragweed",[7]; 500 g ai/ha,90
same,"Plant response rating, Corn",corn (Zea mays); 125 g ai/ha,20
same,Corn plant response rating,corn (Zea mays); 500 g ai/ha,80
same,"Plant response rating, Wheat",[8]; 125 g ai/ha,0
same,Wheat plant response rating,[8]; 500 g ai/ha,60
same,"Plant response rating, Blackgrass",[9]; 125 g ai/ha,20
same,Blackgrass plant response rating,[9]; 500 g ai/ha,40
same,"Ryegrass, Italian plant response rating",[10]; 125 g ai/ha,100
same,"Plant response rating, Ryegrass, Italian",[10]; 500 g ai/ha,100
same,"Plant response rating, Galium",[11]; 125 g ai/ha,90
same,Galium plant response rating,[11]; 500 g ai/ha,90
same,"Foxtail, Giant plant response rating",[12]; 125 g ai/ha,80
same,"Plant response rating, Foxtail, Giant",[12]; 500 g ai/ha,100
same,Kochia plant response rating,kochia (Bassia scoparia) [13]; 125 g ai/ha,90
same,"Plant response rating, Kochia",kochia (Bassia scoparia) [13]; 500 g ai/ha,90
same,"Plant response rating, Foxtail, Giant",[14]; 125 g ai/ha,70
same,"Foxtail, Giant plant response rating",[14]; 500 g ai/ha,90
Cc1cc(C)c(N(S(=O)(=O)C(F)(F)F)S(=O)(=O)C(F)(F)F)cc1C1=NOC2(CCSCC2)C1 [Compound 114],Barnyardgrass plant response rating,[1]; 125 g ai/ha,50
same,"Plant response rating, Barnyardgrass",[1]; 500 g ai/ha,80
same,"Plant response rating, Ragweed",[2]; [17],0
same,Ragweed plant response rating,[2]; 500 g ai/ha,30
same,"Plant response rating, Kochia",kochia (Bassia scoparia) [3]; [17],10
same,Kochia plant response rating,kochia (Bassia scoparia) [3]; 500 g ai/ha,40
same,"Plant response rating, Barnyardgrass",[4]; [17],20
same,Barnyardgrass plant response rating,[4]; 500 g ai/ha,70
same,"Plant response rating, Pigweed",[5]; [17],60
same,Pigweed plant response rating,[5]; 500 g ai/ha,80
same,"Plant response rating, Ryegrass, Italian",[6]; [17],40
same,"Ryegrass, Italian plant response rating",[6]; 500 g ai/ha,40
same,Ragweed plant response rating,[7]; 125 g ai/ha,0
same,"Plant response rating, Ragweed",[7]; 500 g ai/ha,10
same,"Plant response rating, Corn",corn (Zea mays); [17],20
same,Corn plant response rating,corn (Zea mays); 500 g ai/ha,50
same,"Plant response rating, Wheat",[8]; [17],60
same,Wheat plant response rating,[8]; 500 g ai/ha,60
same,"Plant response rating, Blackgrass",[9]; [17],30
same,Blackgrass plant response rating,[9]; 500 g ai/ha,50
same,"Ryegrass, Italian plant response rating",[10]; 125 g ai/ha,70
same,"Plant response rating, Ryegrass, Italian",[10]; 500 g ai/ha,90
same,"Plant response rating, Galium",[11]; [17],90
same,Galium plant response rating,[11]; 500 g ai/ha,90
same,"Foxtail, Giant plant response rating",[12]; 125 g ai/ha,90
same,"Plant response rating, Foxtail, Giant",[12]; 500 g ai/ha,100
same,Kochia plant response rating,kochia (Bassia scoparia) [13]; 125 g ai/ha,30
same,"Plant response rating, Kochia",kochia (Bassia scoparia) [13]; 500 g ai/ha,70
same,"Plant response rating, Foxtail, Giant",[14]; [17],50
same,"Foxtail, Giant plant response rating",[14]; 500 g ai/ha,80
